Reference: patent US7000348B2, “Method and composition for tree root colonization” (Vamtech, LLC, priority 2003, dated 2006)
“Also recorded” adds a separate entry of the source.

Columns and labels:
Format in all cases: in vivo
[1] = system: Douglas-fir seedlings; test: Caliper diameter of Douglas-fir seedlings
Excerpt: (§1) Douglas-fir seeds were sown in 2 cm^3 in cells in Stryoblock™ containers filled with soilless mix (50:50 peat:vermiculite) in the greenhouse at the J. Herbert Stone Nursery in Central Point, Oreg. Soluble fertilizer applications, temperatures, and hardening off procedure were the same as those described for Ponderosa pine above. No pesticides were used on the crop during this period, and no mycorrhizal inoculum was applied prior to applications of treatments.
(§2) Eight months after sowing, fourteen Douglas-fir seedlings were randomly sampled (2 or 3 from 6 trays) to determine colonization by the mycorrhizal fungus R. parksii. No colonization by R. parksii was present at this time. […]
(§3) The diameter of all seedlings in all of the treatments was then measured with a caliper. […] Samples were analyzed for total nitrogen and phosphorus (Kjeldahl digest with ammonia and orthophosphate read on an auto-analyzer), and extractable potassium (microwave digestion) with inductively couples argon plasma spectrometer (ICPMS).
(§4) All trials were conducted in a randomized complete block design. […] Means comparisons were calculated using Fisher's LSD (least significant difference). […]

[2] = system: Douglas-fir seedlings; test: Foliar nutrient analysis of Douglas-fir needles
Excerpt: as §1
Eight months after sowing, fourteen Douglas-fir seedlings were randomly sampled (2 or 3 from 6 trays) to determine colonization by the mycorrhizal fungus R. parksii. No colonization by R. parksii was present at this time. The treatments applied to three trays of 20 seedlings each were a control with no potassium formononetinate or mycorrhizal inoculation (C), potassium formononetinate only at 20 mg/L of soilless mix (M-20), mycorrhizal inoculation only at 100,000 R. parksii spores/cavity applied with a graduated pipette (R-100), mycorrhizal inoculation with R. parksii at 100,000 spores per cavity plus potassium formononetinate at 20 mg/L of soilless mix (0.11 per 60 seedlings) (M-20+R-100), mycorrhizal inoculation with R. parksii at 100,000 spores per cavity plus potassium formononetinate at 60 mg/L of soilless mix (0.33 per 60 seedlings) (M-60+R-100), and mycorrhizal inoculation with R. parksii at 50,000 spores cavity plus potassium formononetinate at 20 mg/L of soilless mix (M-20+R-50). Potassium formononetinate was provided by VAMTech L.L.C., Lansing, Mich.
The diameter of all seedlings in all of the treatments was then measured with a caliper. Needle samples for Ponderosa pine and Douglas-fir were collected from 4 randomly selected seedlings in each treatment for foliar analysis. Samples were analyzed for total nitrogen and phosphorus (Kjeldahl digest with ammonia and orthophosphate read on an auto-analyzer), and extractable potassium (microwave digestion) with inductively couples argon plasma spectrometer (ICPMS).
All trials were conducted in a randomized complete block design. Analyses of variance (ANOVA) were performed separately for seedling caliper, nutrient content, and mycorrhizal colonization (Steel and Torrie 1980). Means comparisons were calculated using Fisher's LSD (least significant difference). Residuals from the performed ANOVA's were examined using normal probability plots, tests that the residuals come from normal distributions and plots of residuals versus predicted values. Before analysis, mycorrhizal colonization data as logarithmically transformed to compensate for log-normally distributed values (Steel and Torrie 1980).

[3] = system: R. parksii; test: Mycorrhizal colonization of Douglas-fir roots by Rhizopogon (root tip tally)
Excerpt: as §1, §2, §4

[4] = system: Ponderosa pine seedlings; test: Foliar nutrient analysis of Ponderosa pine needles; details: 60 mg/L, vs seedlings treated with R. rubescens alone
Method: (§5) Ponderosa pine seeds were sown in a soilless mix (50:50 peat:vermiculite) in 2 cm^3 cells in STRYOBLOCK™ containers (Beaver Plastics, Corvallis, Oreg.) inside the greenhouse at the J. Herbert Stone Nursery in Central Point, Oreg. Eight weeks after germination, all emerging ponderosa pine seedlings were inoculated with 100,000 spores each of the ectomycorrhizal fungus R. rubescens using a liquid suspension applied via a traveling irrigation boom. Liquid spore suspension was prepared by maceration of R. rubescens sporocarps in distilled water for 10 min, followed by serial dilution with distilled water. Spore concentrations were determined using a hemacytometer. Soluble fertilizer (250 ppm N, 60 ppm P and 158 ppm K plus micronutrients) was applied with irrigation for optimum growth. Temperatures were held between 65° F. and 75° F. in the greenhouse. […]
as §3, §4

[5] = system: R. rubescens; test: Mycorrhizal colonization of Ponderosa pine seedlings by Rhizopogon (root tip tally); details: potassium formononetinate 60 mg/L with R. rubescens spores vs spores alone
Method: as §5, with “greenhouse. The seedlings were hardened off about six months after sowing by reducing the amount of irrigation water and fertilizer in it (to 50 ppm N, 31 ppm P and 150 ppm K plus micronutrients). No pesticides were used on the crop during this period. Ponderosa pine seedlings were then each inoculated again with 100,000 spores of R. rubescens using the same inoculation procedure.” for “greenhouse.”
as §4

[6] = system: Ponderosa pine seedlings; test: Caliper diameter of Ponderosa pine seedlings; details: potassium formononetinate 60 mg/L added to R. rubescens inoculation
Method: as §5, §3, §4

[7] = M = potassium formononetinate mg/L, R = R. parksii spores x1000 per cavity
[8] = R. parksii and potassium formononetinate, over the untreated control, but not over R. parksii alone

## COc1ccc(-c2coc3cc([O-])ccc3c2=O)cc1.[K+] [potassium formononetinate, potassium salt of 7-hydroxy, 4′-methoxy isoflavone]
[1]; thirteen months after sowing, M = potassium formononetinate mg/L, R = R. parksii spores x1000 per cavity
  caliper diameter, Douglas-fir: 0.2 cm
[1]; vs untreated control, R. parksii alone or plus potassium formononetinate
  caliper size, Douglas-fir (effect in words): increased caliper size over the control
[2]; 60 mg/L plus R. parksii, vs untreated plants, R. parksii alone and any other treatment
  potassium content, Douglas-fir (effect in words): significantly higher
[2]; [7]
  foliar nitrogen content, Douglas-fir needles: 1.29%
  foliar phosphorous content, Douglas-fir needles: 0.15%
[2]; [8]
  nitrogen content, Douglas-fir (effect in words): significantly increased
  phosphorus content, Douglas-fir (effect in words): significantly increased
[3]; potassium formononetinate 60 mg/L with R. parksii spores
  root colonization by Rhizopogon, Douglas-fir (effect in words): significantly increased
[3]; thirteen months after sowing, M-20/M-60 = potassium formononetinate 20/60 mg/L of soilless mix, R-100/R-50 = 100,000/50,000 R. parksii spores per cavity
  Mycorrhizal colonization of Douglas-fir roots by R. parksii: 0%
[4]
  nitrogen content, Ponderosa pine (effect in words): significantly increased
[5]
  root colonization by Rhizopogon, Ponderosa pine (effect in words): significantly increased
[6]
  caliper diameter, Ponderosa pine (effect in words): not significantly increased; also recorded: not significantly affected
